According to PubChem BioAssay AID256 (DTP/NCI, 2004):
“And” between values parts separate entries of the source, which are not always exact repeats. Equal values may be shown once. Toxic doses and inconclusive results are not listed. Rule for the calls: active = survival T/C of 150% or more; inactive = T/C below 125% in these data.

System: CD2F1 mice, L1210 leukemia ip, survival T/C
Assay: NCI In Vivo Anticancer Drug Screen. Data for tumor model L1210 Leukemia (intraperitoneal) in CD2F1 (CDF1) mice
Conditions: endpoint: mean survival time, higher = longer survival
How it was run: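 Activity against a transplanted murine tumor was judged by comparing the compound group with a vehicle group. The outcome in the treated animals was divided by that in the controls.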

[1] = dose: 25.0 mg/kg/injection, schedule: Q04DX002 (ip), vehicle: saline with Tween-80
[2] = dose: 50.0 mg/kg/injection, schedule: Q04DX002 (ip), vehicle: saline with Tween-80
[3] = dose: 100.0 mg/kg/injection, schedule: Q04DX002 (ip), vehicle: saline with Tween-80
[4] = dose: 50.0 mg/kg/injection, schedule: Q01DX009 (ip), vehicle: saline with Tween-80
[5] = dose: 100.0 mg/kg/injection, schedule: Q01DX009 (ip), vehicle: saline with Tween-80
[6] = dose: 200.0 mg/kg/injection, schedule: Q01DX009 (ip), vehicle: saline with Tween-80
[7] = dose: 25.0 mg/kg/injection, schedule: Q01DX001 (ip), vehicle: saline with Tween-80
[8] = dose: 50.0 mg/kg/injection, schedule: Q01DX001 (ip), vehicle: saline with Tween-80
[9] = dose: 100.0 mg/kg/injection, schedule: Q01DX001 (ip), vehicle: saline with Tween-80
[10] = dose: 200.0 mg/kg/injection, schedule: Q01DX001 (ip), vehicle: saline with Tween-80
[11] = dose: 200.0 mg/kg/injection, schedule: Q04DX002 (ip), vehicle: saline with Tween-80
[12] = dose: 200.0 mg/kg/injection, schedule: Q04DX003 (ip), vehicle: saline with Tween-80
[13] = dose: 400.0 mg/kg/injection, schedule: Q01DX001 (ip), vehicle: saline with Tween-80
[14] = dose: 400.0 mg/kg/injection, schedule: Q01DX009 (ip), vehicle: saline with Tween-80
[15] = dose: 400.0 mg/kg/injection, schedule: Q04DX002 (ip), vehicle: saline with Tween-80
[16] = dose: 400.0 mg/kg/injection, schedule: Q04DX003 (ip), vehicle: saline with Tween-80
[17] = dose: 25.0 mg/kg/injection, schedule: Q01DX009 (ip), vehicle: saline

Measured: T/C

CCC1=C/C(=C\c2ccc3c(c2)OCO3)C(=O)S1
inactive: [1] 93 % of control | [2] 89 % of control | [3] 93 % of control

CCOC(=O)C(Cc1ccc(OC)cc1)P(=O)(OCC)OCC (configuration not stated)
inactive: dose: 100.0 mg/kg/injection, schedule: Q01DX001 (ip), vehicle: saline 106 % of control | dose: 200.0 mg/kg/injection, schedule: Q01DX001 (ip), vehicle: saline 108 % of control | dose: 400.0 mg/kg/injection, schedule: Q01DX001 (ip), vehicle: saline 101 % of control

Cc1cc(C)c(NC2=NCCS2)cc1C
inactive: [1] 101 % of control | [2] 104 % of control | [3] 101 % of control

c1ccc(Nc2ccccc2)cc1 (tested in a mixture with another compound)
inactive: dose: 100.0 mg/kg/injection, schedule: Q04DX002 (ip), vehicle: saline 95 % of control

O=C(CNC(=O)Nc1cccc([N+](=O)[O-])c1)N/N=C/c1cc(Br)ccc1O
inactive: [4] 92 % of control | [5] 88 % of control | [6] 88 % of control

CC1=C(C)C(COS(=O)(=O)c2ccc(C)cc2)C1COS(=O)(=O)c1ccc(C)cc1 (configuration not stated)
inactive: dose: 100.0 mg/kg/injection, schedule: Q04DX003 (ip), vehicle: saline 97 % of control | dose: 200.0 mg/kg/injection, schedule: Q04DX003 (ip), vehicle: saline 97 % of control | dose: 400.0 mg/kg/injection, schedule: Q04DX003 (ip), vehicle: saline 95 % of control

CCCCCCCCCC(=O)NC(=S)Nc1c(C)cccc1C
inactive: [7] 95 % of control | [8] 95 % of control | [9] 92 % of control | [5] 92 % of control and 109 % of control | [3] 92 % of control and 96 % of control | dose: 100.0 mg/kg/injection, schedule: Q04DX003 (ip), vehicle: saline with Tween-80 98 % of control | [10] 91 % of control and 92 % of control | [6] 89 % of control and 98 % of control | [11] 98 % of control and 100 % of control | [12] 95 % of control | [13] 88 % of control | [14] 106 % of control | [15] 91 % of control and 96 % of control | [16] 90 % of control

CCCOc1ccc(C(N)=S)c2ccccc12
inactive: dose: 100.0 mg/kg/injection, schedule: Q04DX002 (ip), vehicle: Klucel (hydroxypropylcellulose) (HPC) 105 % of control | dose: 200.0 mg/kg/injection, schedule: Q04DX002 (ip), vehicle: Klucel (hydroxypropylcellulose) (HPC) 102 % of control | dose: 400.0 mg/kg/injection, schedule: Q04DX002 (ip), vehicle: Klucel (hydroxypropylcellulose) (HPC) 105 % of control

S=C1OC(c2ccccc2)(c2ccccc2)c2ccsc21
inactive: [7] 95 % of control | [8] 95 % of control

CC1=C(O)C(=O)[C@@H]2O[C@@H]2C1=O
inactive: dose: 0.78 mg/kg/injection, schedule: Q01DX009 (ip), vehicle: saline 98 % of control and 102 % of control | dose: 1.56 mg/kg/injection, schedule: Q01DX009 (ip), vehicle: saline 101 % of control and 102 % of control | dose: 3.12 mg/kg/injection, schedule: Q01DX009 (ip), vehicle: saline 96 % of control and 107 % of control | dose: 6.25 mg/kg/injection, schedule: Q01DX009 (ip), vehicle: saline 98 % of control and 108 % of control | dose: 12.5 mg/kg/injection, schedule: Q01DX009 (ip), vehicle: saline 108 % of control | [17] 87 % of control

O=C(Nc1c(Cl)cccc1Cl)OCCOc1ccccc1Cl
inactive: [4] 98 % of control | [5] 98 % of control | [6] 98 % of control

CCOC(=O)CC(=O)c1c(C)cc(C)c(Br)c1C
inactive: [12] 97 % of control | [16] 92 % of control

Oc1ccccc1Cn1ccnc1
inactive: [17] 104 % of control | dose: 50.0 mg/kg/injection, schedule: Q01DX009 (ip), vehicle: saline 98 % of control | dose: 100.0 mg/kg/injection, schedule: Q01DX009 (ip), vehicle: saline 98 % of control and 103 % of control

O=C1SCCC1NP(=O)(Oc1ccccc1)Oc1ccccc1 (configuration not stated)
inactive: [5] 93 % of control | [6] 103 % of control | [14] 93 % of control

CCCCN=C(C(=NCCCC)N(CCCC)CCCC)N(CCCC)CCCC
inactive: [3] 101 % of control | [11] 89 % of control | [15] 98 % of control

OC1CCCC2CCC[N-]C12.OC1CCCC2CCC[N-]C12.[Mn+2] (configuration not stated)
inactive: dose: 25.0 mg/kg/injection, schedule: Q01DX009 (ip), vehicle: Klucel (hydroxypropylcellulose) (HPC) 104 % of control | dose: 50.0 mg/kg/injection, schedule: Q01DX009 (ip), vehicle: Klucel (hydroxypropylcellulose) (HPC) 115 % of control | dose: 100.0 mg/kg/injection, schedule: Q01DX009 (ip), vehicle: Klucel (hydroxypropylcellulose) (HPC) 104 % of control

Cc1cc(CO)c(O)c(CO)c1
inactive: [5] 91 % of control | [6] 91 % of control | [14] 91 % of control

CCCCCCC(C)(O)CCCCCC
inactive: [9] 93 % of control | [10] 96 % of control | [13] 101 % of control

CC1(C)CC(=O)C2(C)C(C1O)C2C1C2C(O)C(C)(C)CC(=O)C21C (configuration not stated)
inactive: dose: 75.0 mg/kg/injection, schedule: Q01DX001 (ip), vehicle: other 96 % of control | dose: 150.0 mg/kg/injection, schedule: Q01DX001 (ip), vehicle: other 94 % of control | dose: 300.0 mg/kg/injection, schedule: Q01DX001 (ip), vehicle: other 91 % of control

O=C1C=C(NC2CCCCCC2)C(=O)c2nccnc21
inactive: dose: 6.25 mg/kg/injection, schedule: Q01DX009 (ip), vehicle: saline with Tween-80 91 % of control | dose: 12.5 mg/kg/injection, schedule: Q01DX009 (ip), vehicle: saline with Tween-80 95 % of control | dose: 25.0 mg/kg/injection, schedule: Q01DX009 (ip), vehicle: saline with Tween-80 91 % of control | [4] 93 % of control

Nc1ncnc(N2C(=S)OC3C(O)C(CO)OC32)c1N (configuration not stated)
inactive: dose: 12.5 mg/kg/injection, schedule: Q01DX005 (ip), vehicle: water 92 % of control | dose: 25.0 mg/kg/injection, schedule: Q01DX005 (ip), vehicle: water 88 % of control | dose: 50.0 mg/kg/injection, schedule: Q01DX005 (ip), vehicle: water 95 % of control | dose: 100.0 mg/kg/injection, schedule: Q01DX005 (ip), vehicle: water 95 % of control | dose: 200.0 mg/kg/injection, schedule: Q01DX005 (ip), vehicle: water 90 % of control

O=C(O)/C(=C\c1ccc(Br)cc1)c1ccc(C(F)(F)F)cc1[N+](=O)[O-]
inactive: dose: 75.0 mg/kg/injection, schedule: Q04DX003 (ip), vehicle: saline 89 % of control | dose: 150.0 mg/kg/injection, schedule: Q04DX003 (ip), vehicle: saline 101 % of control | dose: 300.0 mg/kg/injection, schedule: Q04DX003 (ip), vehicle: saline 100 % of control

Cc1n(Cc2ccc(Cl)cc2Cl)cc[n+]1Cc1ccccc1
inactive: dose: 10.0 mg/kg/injection, schedule: Q04DX003 (ip), vehicle: Klucel (hydroxypropylcellulose) (HPC) 100 % of control | dose: 20.0 mg/kg/injection, schedule: Q04DX003 (ip), vehicle: Klucel (hydroxypropylcellulose) (HPC) 105 % of control | dose: 40.0 mg/kg/injection, schedule: Q04DX003 (ip), vehicle: Klucel (hydroxypropylcellulose) (HPC) 92 % of control

COc1cc2c(c(OC)c1OC)-c1ccc(OC)c(=O)cc1[C@@H](N(C)C(C)=O)CC2
inactive: dose: 0.06 mg/kg/injection, schedule: Q01DX005 (ip), vehicle: Klucel (hydroxypropylcellulose) (HPC) 103 % of control | dose: 0.13 mg/kg/injection, schedule: Q01DX005 (ip), vehicle: Klucel (hydroxypropylcellulose) (HPC) 104 % of control | dose: 0.25 mg/kg/injection, schedule: Q01DX005 (ip), vehicle: Klucel (hydroxypropylcellulose) (HPC) 110 % of control
active: dose: 1.0 mg/kg/injection, schedule: Q01DX005 (ip), vehicle: Klucel (hydroxypropylcellulose) (HPC) 150 % of control

CC(=O)OC1CCC2(C)C3CCC4(C)C(OC(=O)c5ccccc5)CCC4C3C3C(=O)OC32C1 (configuration not stated)
inactive: [9] 91 % of control | [10] 90 % of control and 96 % of control | [13] 88 % of control

Nc1cncc([N+](=O)[O-])c1N
inactive: [9] 98 % of control | [10] 101 % of control | [13] 101 % of control
